This note sets out measurements from patent US9376391B2, “Difluoromethyl-nicotinic-tetrahydronaphthyl carboxamides as fungicides” (BAYER CROPSCIENCE AKTIENGESELLSCHAFT, priority 2012, dated 2016).

Each structure is given as a SMILES string.

In one experiment the test system is Alternaria brassicae. Briefly: In vivo preventive test on Alternaria brassicae (leaf spot on radish). Conditions: dose 500 ppm, spray, graded 6 days after contamination vs control plants. In a few lines: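 Radish cv. Pernod Clair at cotyledon stage (grown 17 °C) sprayed with compound in acetone/tween/DMSO/water, then inoculated 24 h later with A. brassicae spores (50 000 spores per ml). Incubation 20 °C, 100% RH; % efficacy graded 6 days post-inoculation versus solvent-treated controls.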

The test system of a further experiment is Pyrenophora teres. Briefly: In vivo preventive test on Pyrenophora teres (net blotch on barley).

For the molecule `CC1CC(C)(C)c2cccc(NC(=O)c3cccnc3C(F)F)c21` (stereo not shown) [Example 1], the Eff. % with Alternaria brassicae was 92%; in the experiment with Pyrenophora teres (dose 500 ppm, barley, spray, graded 14 days after contamination vs control plants), 100%. The “protection (in words)” value in the experiment with Pyrenophora teres (dose 100 ppm of active ingredient, comparison with known compounds) is “total protection”. For the same molecule, the Efficacy in the experiment on Pyrenophora teres (dose 100 ppm, comparison with known compounds, same conditions) worked out at 100%.
